Literature values in patent US20030175210A1, “Individualization of therapy with anxiolitics” (McGill University, priority 2001, published 2003).

Conditions: in vivo

For `O=C1Nc2ccc(Cl)cc2C(c2ccccc2Cl)=NC1O` (stereo not shown) [Lorazepam], the half-life is given as 10 to 15 h.
